Test systems include UACC-257 melanoma; LOX IMVI melanoma; HCC-2998 colon; DLD-1 colon; HOP-18 NSCLC; HCT-116 colon; SNB-19 CNS; KM20L2 colon; RXF 393 renal; MDA-MB-435.
Common to all, as to assay: NCI tumour cell line growth inhibition, 48 h

Values joined by “and” are separate entries in the source; they are usually repeats but may differ in a detail not shown here. Identical values can stand only once.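 Tested at 5 concentrations; 48 h exposure; 96-well plates; endpoints linearly interpolated, else capped at highest concentration. Here, GI50 denotes the concentration required for 50% inhibition of growth. The concentration for full growth arrest is given as TGI.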 Bounds are passed on as bounds.

As to `C[C@H]1[C@H](C)CC[C@]2(C(=O)O)CCC3(COC(=O)/C=C/c4ccc(O)cc4)C(=CCC4[C@@]5(C)CC[C@H](O)C(C)(C)C5CC[C@]43C)[C@H]12` (stereo not given in full), the TGI with UACC-257 melanoma came to 31.5 µM; in the assay with LOX IMVI melanoma, 18.3 µM; in the assay with HCC-2998 colon it was 18.2 µM; in the assay on DLD-1 colon, 15.8 µM; in the assay with HOP-18 NSCLC, 33.9 µM; in the assay on HCT-116 colon it was 14.2 µM. The TGI was 22.5 µM in the assay with SNB-19 CNS, 16.4 µM in the assay on KM20L2 colon and 23.5 µM with RXF 393 renal.

Turning to `CCOC(=O)C(C(=O)OCC)S(C)(=O)=O`, the TGI in the assay with UACC-257 melanoma, with LOX IMVI melanoma, with HCC-2998 colon, with DLD-1 colon, in the assay with HOP-18 NSCLC and in the assay on HCT-116 colon was greater than 100 µM throughout. For the same compound, the TGI in the assay with SNB-19 CNS, in the assay with KM20L2 colon and in the assay on RXF 393 renal was greater than 100 µM throughout.

As for `C[N+]1(C)C/C(=C\C=C\c2ccccc2)C(=O)/C(=C/C=C/c2ccccc2)C1`, the TGI was 26 µM in the assay with UACC-257 melanoma; 52.1 µM in the assay on LOX IMVI melanoma; 34.2 µM in the assay with HCC-2998 colon; 45.5 µM in the assay on DLD-1 colon; greater than 61.1 µM in the assay on HOP-18 NSCLC; 28.9 µM in the assay on HCT-116 colon. For the same compound, the TGI in the assay on SNB-19 CNS was 27.5 µM; with MDA-MB-435, 20 µM; with KM20L2 colon it was 33.1 µM; in the assay with RXF 393 renal, greater than 61.1 µM.

Turning to `O=C(O)C1Cc2[nH]c3ccccc3c2C2CCCC12` (stereo not given), the TGI in the assay on UACC-257 melanoma, in the assay on LOX IMVI melanoma, with HCC-2998 colon, in the assay with DLD-1 colon, in the assay with HCT-116 colon and in the assay with SNB-19 CNS was greater than 100 µM each time. The compound also gave a TGI in the assay on KM20L2 colon greater than 100 µM.

Regarding `CC(C)OP(=O)(OC(C)C)/C(=N/Nc1ccc([N+](=O)[O-])cc1)NNC(=O)c1ccccc1`, the TGI in the assay with UACC-257 melanoma was greater than 100 µM; in the assay with LOX IMVI melanoma it was 70.8 µM; with HCC-2998 colon it was 70.4 µM; in the assay on DLD-1 colon it was greater than 100 µM; with HCT-116 colon it was greater than 100 µM; with SNB-19 CNS, greater than 100 µM. In addition, the TGI with KM20L2 colon was greater than 100 µM.

Regarding `O=C(/C=C/c1ccc(O)c(O)c1)c1ccc(O)cc1O`, the TGI in the assay with UACC-257 melanoma was found to be 29.9 µM; with LOX IMVI melanoma, 24 µM; with HCC-2998 colon it was 34.2 µM; with DLD-1 colon, 29.3 µM; in the assay with HCT-116 colon it was 28 µM; with SNB-19 CNS, 43.9 µM. The results for the TGI in the assay on MDA-MB-435, in the assay on KM20L2 colon and in the assay on RXF 393 renal were 29.1 µM, 31.3 µM and 25.8 µM, respectively.

`Cc1cc(N(CCC#N)CCC#N)ccc1/C=C(\N=[N+]=[N-])C(=O)NC(=O)COc1ccccc1`: the TGI in the assay with UACC-257 melanoma, in the assay on LOX IMVI melanoma, in the assay with HCC-2998 colon, with DLD-1 colon, in the assay with HOP-18 NSCLC and in the assay with HCT-116 colon was greater than 100 µM throughout. Besides, the TGI with SNB-19 CNS is greater than 100 µM; in the assay with KM20L2 colon, greater than 100 µM; in the assay on RXF 393 renal, 97.5 µM.

With `NCCNc1ccc(NCCN)c2c1C(=O)c1c(O)ccc(O)c1C2=O`, the TGI was 3.11 µM and 4.1 µM with UACC-257 melanoma; 0.252 µM and 0.214 µM in the assay on LOX IMVI melanoma; 1.24 µM in the assay on HCC-2998 colon; 1.05 µM and 0.974 µM in the assay on DLD-1 colon; 3.82 µM and 0.77 µM in the assay on HOP-18 NSCLC; 0.52 µM and 0.446 µM with HCT-116 colon. For the same compound, the TGI in the assay on SNB-19 CNS was 1.14 µM and 0.254 µM; with MDA-MB-435 it was 2.37 µM; in the assay with KM20L2 colon, 1.5 µM and 1.53 µM; in the assay with RXF 393 renal, 0.387 µM and 0.679 µM. Besides, the GI50 is 0.031 µM in the assay on LOX IMVI melanoma; 0.147 µM in the assay with HCC-2998 colon; 0.069 µM in the assay with DLD-1 colon; 0.0263 µM with HOP-18 NSCLC; 0.0343 µM with HCT-116 colon; 0.0145 µM in the assay with SNB-19 CNS. The GI50 is 0.251 µM in the assay with KM20L2 colon and 0.179 µM in the assay on RXF 393 renal.

With `COc1cc2cnc3c4cc(O)ccc4ccc3c2cc1OC`, the TGI in the assay with UACC-257 melanoma, in the assay on LOX IMVI melanoma, in the assay on HCC-2998 colon, in the assay with DLD-1 colon, in the assay with HOP-18 NSCLC and in the assay with HCT-116 colon was greater than 100 µM throughout. The TGI with SNB-19 CNS, in the assay on KM20L2 colon and in the assay on RXF 393 renal was greater than 100 µM throughout.

As for `COc1ccccc1NC(=O)C(=O)C(c1cnc2ccc([N+](=O)[O-])cc2n1)[N+](=O)[O-]` (stereo not given), the TGI in the assay on UACC-257 melanoma, in the assay with LOX IMVI melanoma, in the assay on HCC-2998 colon, with DLD-1 colon, in the assay on HOP-18 NSCLC and with HCT-116 colon was greater than 100 µM each time. Further, the TGI in the assay with SNB-19 CNS, in the assay on KM20L2 colon and in the assay on RXF 393 renal was greater than 100 µM each time.

Turning to `CC1=C(N2CC2)C(=O)C(C)=C(N2CC2)C1=O`, the TGI with UACC-257 melanoma is 2.77 µM; with LOX IMVI melanoma, 1.38 µM; with HCC-2998 colon, 0.362 µM; in the assay with DLD-1 colon, 0.829 µM; with HOP-18 NSCLC it was 11.4 µM; in the assay on HCT-116 colon, 19.3 µM. Moreover, the TGI in the assay on SNB-19 CNS was determined as 8.33 µM; with KM20L2 colon it was 0.568 µM; with RXF 393 renal it was 0.329 µM.

With `COc1ccc(OC)c(CCc2ccccc2CC(=O)O)c1`, the TGI with UACC-257 melanoma, with LOX IMVI melanoma, in the assay with HCC-2998 colon, in the assay on DLD-1 colon, with HOP-18 NSCLC and with HCT-116 colon was greater than 100 µM in each case. The TGI in the assay on SNB-19 CNS, in the assay with KM20L2 colon and with RXF 393 renal was greater than 100 µM each time.

`COc1cc(Cn2c3ccccc3c3cc(C)cc(OC)c32)cc2c1[nH]c1ccccc12`: the GI50 is 8.19 µM in the assay with LOX IMVI melanoma and 15.4 µM with KM20L2 colon. For the same compound, the TGI with LOX IMVI melanoma, in the assay on HCC-2998 colon, in the assay on DLD-1 colon, with HCT-116 colon, with SNB-19 CNS and in the assay on KM20L2 colon was greater than 25 µM throughout.

For the compound `COc1cc2c(c(OC)c1)C(=O)C(=O)C(CC1(C)OCCCO1)=C2`, the TGI was found to be 27.4 µM in the assay on UACC-257 melanoma; 12.9 µM in the assay with LOX IMVI melanoma; 30.1 µM in the assay with HCC-2998 colon; 8.45 µM in the assay on DLD-1 colon; 24.5 µM in the assay with HOP-18 NSCLC; 10.3 µM with HCT-116 colon. The TGI in the assay with SNB-19 CNS was greater than 53.2 µM; in the assay with KM20L2 colon, 31.9 µM; in the assay with RXF 393 renal, 8.71 µM.

As to `N#CCCN(c1ccc(C=Nc2ccc(C(=O)O)cc2)cc1)S(=O)(=O)c1ccccc1`, the TGI in the assay on UACC-257 melanoma, with LOX IMVI melanoma, in the assay with HCC-2998 colon, in the assay with DLD-1 colon, with HOP-18 NSCLC and with HCT-116 colon was greater than 100 µM throughout. In addition, the TGI in the assay with SNB-19 CNS, with KM20L2 colon and with RXF 393 renal was greater than 100 µM each time.

As for `Nc1n[nH]c(N)n1`, the TGI in the assay on UACC-257 melanoma was greater than 9050 µM; in the assay on LOX IMVI melanoma, 7400 µM; in the assay with HCC-2998 colon it was greater than 10000 µM; with DLD-1 colon it was greater than 10000 µM; in the assay on HOP-18 NSCLC it was greater than 10000 µM; in the assay with HCT-116 colon, greater than 10000 µM. Further, the TGI in the assay on SNB-19 CNS, in the assay on MDA-MB-435, in the assay on KM20L2 colon and in the assay on RXF 393 renal was greater than 10000 µM in each case.

(Values after PubChem BioAssay (NCI).)
